Our source for the TGI values is PubChem BioAssay (NCI).

Molecules are shown by their SMILES.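 Step 1: Grow cells in 96-well plates. Step 2: Expose to compound for 48 hours at 5 concentrations. Step 3: Interpolate endpoints linearly; if unreached, use highest concentration. TGI: concentration producing complete growth inhibition.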

Holding throughout (assay): inhibition of tumour cell growth, NCI panel, 48 h
Assay [1] concerns SF-539 CNS.
The subject of assay [2] is NCI-H460 lung.
Assay [3] relates to SN12C renal.
In assay [4] the test system is UACC-62 melanoma.
In assay [5] the test system is MDA-N.
In assay [6] the test system is HOP-62 NSCLC.
Assay [7] has as its system SK-MEL-28 melanoma.
For assay [8], the system named is ACHN renal.
Assay [9] deals with T-47D breast.
The subject of assay [10] is A498 renal.
Assay [11] deals with HS 578T breast.
For assay [12], the system named is K-562 leukemia.
Assay [13] deals with HOP-92 NSCLC.
Assay [14] relates to UO-31 renal.
For assay [15], the system named is SR leukemia.
Assay [16] concerns M14 melanoma.
For assay [17], the system named is BT-549 breast.
Assay [18] relates to IGROV1 ovarian.
Assay [19] concerns DU-145 prostate.
Assay [20] deals with SNB-75 CNS.

As to `COC(=O)C(Cc1ccccc1)NP(=O)(O)OCC1OC(n2cc(Br)c(=O)[nH]c2=O)CC1O` (stereo not given), the TGI in [1], in [2], in assay [3], in assay [4], in [5] and in assay [6] was above 100 µM each time. For the same compound, the TGI in [7], in [8], in [9], in assay [10], in assay [11] and in assay [12] was above 100 µM each time. The TGI in assay [13], in assay [14], in [15], in [16], in [17] and in assay [18] was above 100 µM in each case. Further, the TGI in assay [19] and in assay [20] was above 100 µM throughout.
Take `O=[N+]([O-])c1c(F)c(F)c2c(c1F)Nc1ccccc1S2`: the TGI amounted to 39.6 µM in assay [1]; 41.8 µM in assay [2]; 12.8 µM in assay [3]; 20.4 µM in assay [4]; 14.5 µM in assay [5]; 27.6 µM in [6]. In addition, the TGI in [7] was 5.74 µM; in assay [8], 29.1 µM; in assay [9], 12.1 µM; in assay [10] it was 30.4 µM; in assay [11] it was 28.6 µM; in assay [12], above 100 µM. In addition, the TGI in assay [13] was 31 µM; in assay [14], 34 µM; in [15], 5.61 µM; in assay [16] it was 10.4 µM; in assay [17] it was 25.8 µM; in assay [18], 8.64 µM. The TGI in assay [19] came to 13.3 µM; in [20] it was 32.6 µM.
As to `c1ccc(-c2nnc(-c3ccccn3)c3c2C[C@@H]2C[C@@H]4Cc5c(-c6ccccn6)nnc(-c6ccccn6)c5[C@@H]4[C@H]32)nc1`, the TGI is above 100 µM in [1]; 88 µM in assay [2]; above 100 µM in [3]; above 100 µM in assay [4]; above 100 µM in [5]; above 100 µM in assay [6]. Also, the TGI in assay [7] is 75.9 µM; in [8], above 100 µM; in assay [9], above 100 µM; in assay [10] it was 6.35 µM; in assay [11], above 100 µM; in assay [12], above 100 µM. Also, the TGI was above 100 µM in assay [13]; above 100 µM in [14]; above 100 µM in assay [15]; 43.6 µM in assay [16]; above 100 µM in assay [17]; above 100 µM in [18]. Moreover, the TGI in [19] and in [20] was above 100 µM in each case.
Regarding `CN(Cc1ccccc1)C(=NC#N)N(Cc1ccccc1)Cc1ccccc1`, the TGI in assay [1] was 39.7 µM; in assay [2], above 90.1 µM; in assay [3] it was above 92.9 µM; in assay [4] it was 55.6 µM; in [5] it was 39.6 µM; in assay [6] it was 84.8 µM. The TGI was 83.1 µM in assay [7]; 78.3 µM in assay [8]; above 100 µM in assay [9]; above 100 µM in assay [10]; above 100 µM in [11]; above 100 µM in assay [12]. For the same compound, the TGI in assay [13] was 55.1 µM; in assay [14], above 84.2 µM; in [15], above 100 µM; in assay [16] it was 47.7 µM; in assay [17], 49.6 µM; in [18] it was above 80.6 µM. The TGI in assay [19] was above 100 µM; in assay [20], 82.2 µM.
In the case of `O=C1NCC(CSc2nc3cc(C4CCCc5c4[nH]c4ccccc54)ccc3o2)N1` (stereo not given), the TGI in [1], in assay [2], in [3], in assay [4], in assay [5] and in assay [6] was above 100 µM throughout. Moreover, the TGI is above 100 µM in assay [7]; above 100 µM in assay [8]; above 100 µM in assay [9]; 50.6 µM in [10]; above 100 µM in assay [11]; above 100 µM in assay [12]. Besides, the TGI in assay [13] is 71.2 µM; in assay [14] it was above 100 µM; in assay [15], above 100 µM; in [16], above 100 µM; in [17] it was above 100 µM; in [18], above 100 µM. In addition, the TGI in assay [19] and in [20] was above 100 µM in each case.
